These results are taken from ChEMBL document CHEMBL5042472, “Design, Synthesis, and Biological Evaluation of a Novel Photocaged PI3K Inhibitor toward Precise Cancer Treatment” (J Med Chem, 2021).

Active and inactive are the calls of the source. A value given as a limit tells only on which side of the number the result lay.

The species named for data set [1] is Homo sapiens. Kind of data set: Anticancer activity against KOCO-096 patient derived colon cancer organoid assessed as inhibition of cell growth irradiated with 365 nm of UV light for 2 mins and incubated for 120 hrs. Type of data set: functional, tissue-based.
For data set [2], the system named is HGC-27. Kind of data set: Inhibition of PI3K/AKT signalling pathway in human HGC-27 cells assessed as downregulation of SRP6 phosphorylation at 100 nM irradiated with 365 nm UV light for 5 mins and incubated for 24 hrs by Western blot. Type of data set: cell-based.
The test system of a further data set is AGS. Kind of data set: Antiproliferative activity against human AGS cells assessed as reduction in cell viability irradiated with 365 nm of UV for 5 mins and incubated in dark for 96 hrs by MTT assay. The settings on record: light or radiation study. Type of data set: functional, cell-based. (In general: Formazan colour is commonly taken as a measure of viable cells.)

Data set [3] deals with HGC-27. Kind of data set: Inhibition of PI3K/AKT signalling pathway in human HGC-27 cells assessed as downregulation of AKT phosphorylation at […] residue at 100 nM incubated for 24 hrs under dark condition by Western blot. Type of data set: cell-based.
Data set [4] is described as follows: Stability in rat plasma assessed as half life at 1 uM measured upto 120 min by LC-MS/MS analysis. Type of data set: ADME, cell-free.
Data set [5] has as its system HCT-116. The data set can be described thus: Antiproliferative activity against human HCT-116 cells assessed as reduction in cell viability irradiated with 365 nm of UV for 5 mins and incubated in dark for 96 hrs by MTT assay. Type of data set: functional, cell-based. As to conditions: HCT-116, light or radiation study.
Data set [6] deals with Phosphatidylinositol 4,5-bisphosphate 3-kinase catalytic subunit gamma isoform (Homo sapiens, UniProt P48736). The data set can be described thus: Inhibition of PI3K gamma (unknown origin) using PIP2 as substrate incubated in dark at room temperature for 1 hr in presence of ATP by ADP-Glo luminescent assay. For orientation: In ADP-Glo the light output rises with the ADP produced.
Chain of Phosphatidylinositol 4,5-bisphosphate 3-kinase catalytic subunit gamma isoform (P48736 whole entry, canonical isoform): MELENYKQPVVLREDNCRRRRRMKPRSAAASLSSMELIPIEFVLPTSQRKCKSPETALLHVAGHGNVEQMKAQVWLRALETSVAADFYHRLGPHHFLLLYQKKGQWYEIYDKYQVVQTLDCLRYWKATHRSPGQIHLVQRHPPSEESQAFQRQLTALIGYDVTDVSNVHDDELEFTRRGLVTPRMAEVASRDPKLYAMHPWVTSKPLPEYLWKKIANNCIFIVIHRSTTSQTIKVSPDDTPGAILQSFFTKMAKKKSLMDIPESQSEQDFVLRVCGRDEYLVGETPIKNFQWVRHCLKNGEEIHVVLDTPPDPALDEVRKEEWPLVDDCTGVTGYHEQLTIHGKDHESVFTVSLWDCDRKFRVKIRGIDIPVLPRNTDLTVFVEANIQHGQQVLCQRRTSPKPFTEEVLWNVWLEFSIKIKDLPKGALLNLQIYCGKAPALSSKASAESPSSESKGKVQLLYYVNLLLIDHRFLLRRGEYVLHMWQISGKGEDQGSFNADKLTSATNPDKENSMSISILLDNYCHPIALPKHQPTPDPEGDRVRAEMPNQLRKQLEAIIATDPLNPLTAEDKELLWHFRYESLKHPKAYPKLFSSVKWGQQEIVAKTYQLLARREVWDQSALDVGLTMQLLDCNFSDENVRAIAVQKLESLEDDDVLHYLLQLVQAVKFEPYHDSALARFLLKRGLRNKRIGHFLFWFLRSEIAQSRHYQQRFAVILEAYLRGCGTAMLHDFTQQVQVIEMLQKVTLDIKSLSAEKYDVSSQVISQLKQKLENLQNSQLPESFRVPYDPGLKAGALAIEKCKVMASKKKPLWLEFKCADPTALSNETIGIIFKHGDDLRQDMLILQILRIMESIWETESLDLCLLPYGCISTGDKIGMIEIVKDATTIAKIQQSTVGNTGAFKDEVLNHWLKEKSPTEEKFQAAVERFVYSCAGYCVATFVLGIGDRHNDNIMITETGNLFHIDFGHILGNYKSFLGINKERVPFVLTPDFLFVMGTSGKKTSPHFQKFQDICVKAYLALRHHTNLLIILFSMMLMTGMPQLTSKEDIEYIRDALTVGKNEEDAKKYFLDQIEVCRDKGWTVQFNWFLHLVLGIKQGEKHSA

Data set [7] is filed under the species Homo sapiens. The data set can be described thus: Anticancer activity against KOCO-096 patient derived colon cancer organoid assessed as inhibition of cell growth irradiated with 365 nm of UV light for 5 mins and incubated for 120 hrs. Type of data set: functional, tissue-based.
Data set [8] concerns the target T1, Phosphatidylinositol 4,5-bisphosphate 3-kinase catalytic subunit delta isoform (Homo sapiens, UniProt O00329).
T1 sequence (O00329 whole entry): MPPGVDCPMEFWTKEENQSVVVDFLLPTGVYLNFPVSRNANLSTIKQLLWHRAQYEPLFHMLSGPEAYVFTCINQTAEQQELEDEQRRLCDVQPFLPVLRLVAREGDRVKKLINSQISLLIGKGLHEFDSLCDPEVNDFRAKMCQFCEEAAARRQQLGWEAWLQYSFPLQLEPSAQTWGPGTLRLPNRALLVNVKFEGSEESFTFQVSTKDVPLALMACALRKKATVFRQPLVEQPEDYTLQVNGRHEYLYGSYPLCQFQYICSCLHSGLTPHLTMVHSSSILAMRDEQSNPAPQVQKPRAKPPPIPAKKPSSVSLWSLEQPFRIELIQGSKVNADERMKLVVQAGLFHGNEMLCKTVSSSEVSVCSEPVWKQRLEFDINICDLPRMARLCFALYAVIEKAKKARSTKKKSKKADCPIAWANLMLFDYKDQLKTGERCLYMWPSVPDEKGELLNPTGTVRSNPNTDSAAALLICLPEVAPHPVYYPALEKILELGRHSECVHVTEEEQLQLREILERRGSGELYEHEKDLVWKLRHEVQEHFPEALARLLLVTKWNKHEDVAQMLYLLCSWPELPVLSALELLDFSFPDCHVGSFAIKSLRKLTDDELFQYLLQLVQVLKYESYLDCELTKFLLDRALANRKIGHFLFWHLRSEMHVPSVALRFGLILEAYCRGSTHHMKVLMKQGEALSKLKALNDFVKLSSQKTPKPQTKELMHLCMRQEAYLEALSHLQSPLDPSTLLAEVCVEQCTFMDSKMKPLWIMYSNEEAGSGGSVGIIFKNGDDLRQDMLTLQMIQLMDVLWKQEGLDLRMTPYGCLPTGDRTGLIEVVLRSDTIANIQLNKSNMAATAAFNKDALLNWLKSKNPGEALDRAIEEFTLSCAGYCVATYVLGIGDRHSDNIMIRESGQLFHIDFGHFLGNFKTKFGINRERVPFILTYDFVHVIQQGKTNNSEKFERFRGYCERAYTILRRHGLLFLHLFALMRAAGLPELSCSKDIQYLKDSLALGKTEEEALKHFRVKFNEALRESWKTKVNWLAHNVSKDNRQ
The data set can be described thus: Inhibition of PI3K delta (unknown origin) using PIP2 as substrate incubated in dark at room temperature for 1 hr in presence of ATP by ADP-Glo luminescent assay.

In a further data set the test system is MG-63. Kind of data set: Antiproliferative activity against human MG-63 cells assessed as reduction in cell viability irradiated with 365 nm of UV for 5 mins and incubated in dark for 96 hrs by MTT assay. Type of data set: functional, cell-based. The settings on record: MG-63, light or radiation study.
Data set [9] in a line: Stability in dog plasma assessed as half life at 1 uM measured upto 120 min by LC-MS/MS analysis. Type of data set: ADME, cell-free, Canis lupus familiaris.
Data set [10] deals with HCT-116. The data set can be described thus: Inhibition of PI3K/AKT signalling pathway in human HCT-116 cells assessed as downregulation of AKT phosphorylation at Ser473 residue at 100 nM irradiated with 365 nm UV light for 5 mins and incubated for 24 hrs by Western blot. Type of data set: cell-based. In general terms: Immunoblotting shows a protein as a band on a membrane.

Data set [11] has as its system HCT-116. Kind of data set: Inhibition of PI3K/AKT signalling pathway in human HCT-116 cells assessed as downregulation of […] phosphorylation at 100 nM incubated for 24 hrs under dark condition by Western blot. Type of data set: cell-based.
For data set [12], the system named is HCT-116. The data set can be described thus: Antiproliferative activity against human HCT-116 cells assessed as reduction in cell viability incubated in dark for 96 hrs by MTT assay. Type of data set: functional, cell-based. The settings on record: HCT-116, 96 h.
The nature of data set [13]: Stability in rat liver microsomes assessed as half life at 1 uM in presence of NADPH by LC-MS/MS analysis. Type of data set: ADME, Microsome.
For data set [14], the target named is Phosphatidylinositol 4,5-bisphosphate 3-kinase catalytic subunit alpha isoform (Homo sapiens, UniProt P42336). The data set can be described thus: Inhibition of PI3K alpha (unknown origin) using PIP2 as substrate irradiated with 365 nm of UV exposure for 2 mins and incubation in dark at room temperature for 1 hr in presence of ATP measured by ADP-Glo luminescent assay.
Chain of Phosphatidylinositol 4,5-bisphosphate 3-kinase catalytic subunit alpha isoform (P42336 whole entry, canonical isoform): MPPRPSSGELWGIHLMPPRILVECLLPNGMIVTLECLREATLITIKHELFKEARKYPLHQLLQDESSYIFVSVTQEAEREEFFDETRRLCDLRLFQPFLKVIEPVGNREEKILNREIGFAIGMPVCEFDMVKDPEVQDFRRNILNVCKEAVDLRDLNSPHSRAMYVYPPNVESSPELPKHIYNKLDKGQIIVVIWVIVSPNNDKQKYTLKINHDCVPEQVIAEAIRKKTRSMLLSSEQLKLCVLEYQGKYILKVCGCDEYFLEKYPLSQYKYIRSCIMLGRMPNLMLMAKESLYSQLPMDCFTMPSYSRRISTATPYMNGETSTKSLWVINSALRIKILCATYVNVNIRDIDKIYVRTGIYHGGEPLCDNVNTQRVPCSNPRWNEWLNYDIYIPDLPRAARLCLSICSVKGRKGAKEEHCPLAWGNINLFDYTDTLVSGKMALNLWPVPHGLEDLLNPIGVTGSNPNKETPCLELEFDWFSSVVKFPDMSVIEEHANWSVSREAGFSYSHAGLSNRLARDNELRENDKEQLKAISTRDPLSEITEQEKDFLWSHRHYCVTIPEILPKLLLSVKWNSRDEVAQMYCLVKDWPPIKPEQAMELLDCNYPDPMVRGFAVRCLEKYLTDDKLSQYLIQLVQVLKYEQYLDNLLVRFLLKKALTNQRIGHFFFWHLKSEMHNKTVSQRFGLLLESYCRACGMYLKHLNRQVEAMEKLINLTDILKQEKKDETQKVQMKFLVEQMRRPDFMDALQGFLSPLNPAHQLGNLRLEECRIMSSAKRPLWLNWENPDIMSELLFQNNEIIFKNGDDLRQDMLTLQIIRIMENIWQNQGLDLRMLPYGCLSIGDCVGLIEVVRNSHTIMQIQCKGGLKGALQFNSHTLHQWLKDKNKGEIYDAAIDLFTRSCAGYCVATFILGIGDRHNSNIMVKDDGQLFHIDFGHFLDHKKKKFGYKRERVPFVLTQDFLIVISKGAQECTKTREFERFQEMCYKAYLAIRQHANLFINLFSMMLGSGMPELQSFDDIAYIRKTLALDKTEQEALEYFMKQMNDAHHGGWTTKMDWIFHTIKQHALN

The subject of another data set is BGC-823. Kind of data set: Antiproliferative activity against human BGC-823 cells assessed as reduction in cell viability incubated in dark for 96 hrs by MTT assay. Type of data set: functional, cell-based. As to conditions: BGC-823, 96 h.
Data set [15] concerns HGC-27. The data set can be described thus: Induction of cell cycle arrest in human HGC-27 cells assessed as accumulation at G0/G1 phase at 100 nM incubated for 24 hrs by flow cytometry. Type of data set: functional, cell-based.
Data set [16] deals with HGC-27. The data set can be described thus: Inhibition of PI3K/AKT signalling pathway in human HGC-27 cells assessed as downregulation of SRP6 phosphorylation at 100 nM incubated for 24 hrs under dark condition by Western blot. Type of data set: cell-based.
Data set [17] in a line: Apparent permeability across apical to basolateral side in human Caco-2 cells at 10 uM incubated for 2 hrs by LC-MS/MS analysis. Type of data set: ADME, cell-based.
For data set [18], the system named is HGC-27. The data set can be described thus: Inhibition of PI3K/AKT signalling pathway in human HGC-27 cells assessed as downregulation of AKT phosphorylation at Ser473 residue at 100 nM irradiated with 365 nm UV light for 5 mins and incubated for 24 hrs by Western blot. Type of data set: cell-based.
For a further data set, the system named is MGC-803. The data set can be described thus: Antiproliferative activity against human MGC-803 cells assessed as reduction in cell viability irradiated with 365 nm of UV for 5 mins and incubated in dark for 96 hrs by MTT assay. The settings on record: MGC-803, light or radiation study. Type of data set: functional, cell-based.

What is called IC50 is the concentration needed to halve the response being measured. One may read the half-life as the time needed for the level to fall by half in the phase considered. The term Papp A→B denotes the apparent permeability from the apical to the basolateral side of a cell layer. For `COc1cc(CN(c2cc(-c3cc(OC4CCOCC4)c4ncnc(C)c4c3)cnc2OC)S(=O)(=O)c2ccc(F)cc2F)c([N+](=O)[O-])cc1OC`, in the data set filed under Homo sapiens [1], the result was Active. For the same compound, the inhibition result in the data set on HGC-27 [2], in the data set on HCT-116 [10] and in the data set with HGC-27 [18] was “Active” throughout. For the same compound, the IC50 with AGS is 70.3 nM; in the data set with HCT-116 [5], 81 nM; in data set [6], 4470 nM; in data set [8] it was 3010 nM; in the data set on MG-63, 142 nM; in the data set with HCT-116 [12], 1460 nM. Moreover, the concentration for half-maximal inhibition (IC50) is 0.58 nM in data set [14], 2360 nM with BGC-823 and 329 nM in the data set with MGC-803. The inhibition result in the data set on HGC-27 [3], in the data set with HCT-116 [11] and in the data set on HGC-27 [16] was “inactive” each time. Besides, the figures for the half-life at 1 µM in [4], in data set [9] and in [13] were above 2 h, above 2 h and 1.82 min, respectively. Moreover, the Activity result in the data set filed under Homo sapiens [7] was “Dose-Dependent Effect”. Moreover, the outcome with HGC-27 [15] was inactive. In addition, the apparent permeability from apical to basolateral (Papp A→B) at 2 h, 10 µM in data set [17] amounted to 0.49 ×10⁻⁶ cm/s.
